Results published in US20230397607A1, “COMPOSITIONS COMPRISING MEFENTRIFLUCONAZOLE” (BASF AGRO B.V., priority 2020, published 2023).
Like-named read-outs stand apart in the source and are kept apart here.

Key:
[1] = system: Qoi resistant isolate of Pyrenophora teres; test: Microtiter test: activity against net blotch Pyrenophora teres on barley (PYRNTE); type: cell-based; conditions: single active, 7 days after inoculation
Text: 2. Activity Against Net Blotch Pyrenophora teres on Barley in the Microtiter Test (PYRNTE)
These percentages were converted into efficacies.

[2] = system: Septoria tritici; conditions: SEPTTR, single active, 7 days after inoculation
Method: Activity Against Leaf Blotch on Wheat Caused by Septoria tritici (SEPTTR)
The stock solutions were mixed according to the ratio, pipetted onto a micro titer plate (MTP) and diluted with water to the stated concentrations. A spore suspension of Septoria tritici in an aqueous biomalt or yeast-bactopeptone-glycerine or DOB solution was then added. The plates were placed in a water vapor-saturated chamber at a temperature of 18° C. Using an absorption photometer, the MTPs were measured at 405 nm 7 days after the inoculation.
An efficacy of 0 means that the growth level of the pathogens corresponds to that of the untreated control; an efficacy of 100 means that the pathogens were not growing.

CC1CC(C)(C)c2cccc(NC(=O)c3cn(C)nc3C(F)F)c21 (stereo in doubt) [compound II, 3-(difluoromethyl)-N-[(3R)-2,3-dihydro-1,1,3-trimethyl-1H-inden-4-yl]-1-methyl-1H-pyrazole-4-carboxamide]
Observed efficacy ([1]; 0.004 ppm): 0%
Observed efficacy ([1]; 0.016 ppm): 10%
Observed efficacy ([1]; 0.063 ppm): 37%
Observed efficacy ([2]; 0.016 ppm): 0%
Observed efficacy ([2]; 0.063 ppm): 17%

CO/C=C(/C(=O)OC)c1ccccc1Oc1cc(Oc2ccccc2C#N)ncn1 [azoxystrobin (A.1.1), azoxystrobin]
Observed efficacy ([2]; 0.004 ppm): 7%

CC(O)(Cn1cncn1)c1ccc(Oc2ccc(Cl)cc2)cc1C(F)(F)F (stereo not drawn) [compound I, 2-[4-(4-chlorophenoxy)-2-(trifluoromethyl)phenyl]-1-(1,2,4-triazol-1-yl) propan-2-ol]
Observed efficacy ([1]; 0.00025 ppm): 0%
Observed efficacy ([1]; 0.001 ppm): 0%
Observed efficacy ([1]; 0.004 ppm): 0%
Observed efficacy ([2]; 0.001 ppm): 7%
Observed efficacy ([2]; 0.004 ppm): 69%

Cn1cc(C(=O)Nc2ccccc2-c2cc(F)c(F)c(F)c2)c(C(F)F)n1 [fluxapyroxad (A.3.9), fluxapyroxad]
Observed efficacy ([1]; 0.004 ppm): 0%

CC(C)c1ccc(Cl)cc1CN(C(=O)c1c(C(F)F)nn(C)c1F)C1CC1 [isoflucypram (A.3.26), isoflucypram]
Observed efficacy ([2]; 0.063 ppm): 37%

CON(C(=O)c1cn(C)nc1C(F)F)C(C)Cc1c(Cl)cc(Cl)cc1Cl (stereo not drawn) [pydiflumetofen (A.3.17), pydiflumetofen]
Observed efficacy ([1]; 0.063 ppm): 10%

COC(=O)N(OC)c1ccccc1COc1ccn(-c2ccc(Cl)cc2)n1 [pyraclostrobin (A.1.14), pyraclostrobin]
Observed efficacy ([2]; 0.001 ppm): 9%
